Reference: US9884065B2, “Inhibiting activity of senescent cells using a glucocorticoid” (Buck Institute for Research on Aging, priority 2011, dated 2018)

Columns and labels:
[1] = test system: SASP; assay: Multiplex ELISA of conditioned media from irradiated IMR90 fibroblasts (50 cytokines and growth factors); assay type: cell-based, human; conditions: 10 μM apigenin immediately after irradiation, analyzed 6 days later; less than 2 fold not considered significant
Procedure: To determine whether or to what extent apigenin suppressed the entire SASP, multiplex ELISA was used to interrogate the relative secretion of 50 cytokines and growth factors. IMR90 fibroblasts were treated with 10 μM apigenin or DMSO immediately after irradiation and analyzed 6 days later. Cells were washed and incubated in serum-free media without apigenin to generate conditioned media. Conditioned media from […], apigenin- or DMSO-treated irradiated IMR90 cells and control (mock-irradiated, DMSO-treated) cells were analyzed by ELISA for various SASP factors (FIG. 19).

[2] = test system: IL-6; assay: Initial drug screen (Prestwick Chemical Library), IL-6 ELISA of medium; assay type: cell-based, human; conditions: 2.5 μM, 48 hours, HCA2 fibroblasts, 0.2% serum
Procedure: The initial drug screen was performed in a 96-well format using automated liquid handling with a Biomek FX (Beckman Coulter, CA). Senescent cells were plated 24 hours after X-irradiation at 7,500 cells per well in 96-well plates. Six days after plating the senescent cells, the pre-senescent cells were plated at 7,500 cells per well in 96-well plates. Twenty-four hours after pre-senescent plating, both pre-senescent and senescent cells were washed and incubated in low (0.2%) serum for 48 hours to arrest cell proliferation of the pre-senescent cells. […] Forty-eight hours after compound addition, the medium in each well was removed and frozen for assay by ELISA to quantitate the levels of IL-6. The cells, which remained in the wells after the medium was removed, were lysed and ATP levels were measured (ATPlite 1-step assay, Perkin Elmer, MA) to exclude compounds that lowered IL-6 through toxicity (cell death). Experimental wells in each plate were normalized to plate mean or same-plate DMSO controls for the ELISA and ATP assays, respectively.
To identify small molecules that may be potential SASP modulators, a screening strategy that entailed administering compounds to parallel 96-well plates containing human fibroblasts (strain HCA2) that were either quiescent or senescent was developed. […] After 48 hours, the medium from each well was removed, and the cells were lysed. […] Cell lysates were assayed for ATP as a surrogate for cell number.

[3] = test system: HCA2 human fibroblasts; conditions: 2.5 μM, 48 hours
Procedure: The initial drug screen was performed in a 96-well format using automated liquid handling with a Biomek FX (Beckman Coulter, CA). Senescent cells were plated 24 hours after X-irradiation at 7,500 cells per well in 96-well plates. Six days after plating the senescent cells, the pre-senescent cells were plated at 7,500 cells per well in 96-well plates. Twenty-four hours after pre-senescent plating, both pre-senescent and senescent cells were washed and incubated in low (0.2%) serum for 48 hours to arrest cell proliferation of the pre-senescent cells. Drugs from the Prestwick Chemical Library, which contains 1120 bio-available compounds in DMSO, were given to the cells at 2.5 μM in media containing 0.2% serum. Forty-eight hours after compound addition, the medium in each well was removed and frozen for assay by ELISA to quantitate the levels of IL-6. The cells, which remained in the wells after the medium was removed, were lysed and ATP levels were measured (ATPlite 1-step assay, Perkin Elmer, MA) to exclude compounds that lowered IL-6 through toxicity (cell death). Experimental wells in each plate were normalized to plate mean or same-plate DMSO controls for the ELISA and ATP assays, respectively.
To identify small molecules that may be potential SASP modulators, a screening strategy that entailed administering compounds to parallel 96-well plates containing human fibroblasts (strain HCA2) that were either quiescent or senescent was developed. The compounds tested comprised the Prestwick Chemical Library, a collection of approximately 1,120 Federal Drug Administration-approved drugs. The compounds were added to duplicate wells at a single concentration (2.5 μM). After 48 hours, the medium from each well was removed, and the cells were lysed. […] Cell lysates were assayed for ATP as a surrogate for cell number.

[4] = test system: K-Ras induced lung tumors; assay: K-Ras mediated lung tumorigenesis in INK-ATTAC:K-RasLA1 mice; assay type: in vivo, mouse; parameters: dose or concentration left out as unconfirmed; conditions: INK-ATTAC3:K-RasLA1 and INK-ATTAC5:K-RasLA1 mice, from three weeks of age; 21 days after treatment
Description: Briefly, INK-ATTAC (p16^Ink4a apoptosis through targeted activation of caspase) transgenic mice have an FK506-binding protein (FKBP)-caspase 8 (Casp8) fusion polypeptide under the control of the p16^Ink4a promoter (see FIG. 10 providing a vector sequence for the transgene and FIG. 11 providing sequences for components of the transgene including the promoter sequence). In the presence of AP20187, a synthetic drug that induces dimerization of a membrane bound myristoylated FKBP-Casp8 fusion protein, senescent cells specifically expressing the FKBP-Casp8 fusion protein via the p16^Ink4a promoter undergo programmed cell death (apoptosis) (see, e.g., Baker, Nature, supra, FIG. 1 therein). Two founder lines (INK-ATTAC^3 and INK-ATTAC^5) were each bred with the K-rasLA1 tumor model. […]
Two INK-ATTAC:K-RasLA1 were produced (one for INK-ATTAC line 3 and one for line 5). […] Twenty one days after treatment, the mice were sacrificed and tumor multiplicity in lungs was measured. […] In addition, metastasis and overall survival will be monitored after tumor induction in the presence or absence of p16-positive cells.

| SMILES | secretion of SASP factors (fold difference over control) [1] | IL-6 secretion (ELISA) [2] | ATP levels [3] | tumor multiplicity in lungs (tumor numbers) [4] |
| --- | --- | --- | --- | --- |
| O=c1cc(-c2ccc(O)cc2)oc2cc(O)cc(O)c12 [apigenin, 4′,5,7-trihydroxyflavone] | suppressed the secretion of several pro-inflammatory cytokines and chemokines, including, for example, TGFA, MCP3, LIF, IFNβ, IL-6, GROA, and IL-2 | capable of suppressing IL-6 secretion | without altering ATP levels | – |
| CC[C@H](C(=O)N1CCCC[C@H]1C(=O)O[C@H](CCc1ccc(OC)c(OC)c1)c1cccc(OCC(=O)NCC(CNC(=O)COc2cccc([C@@H](CCc3ccc(OC)c(OC)c3)OC(=O)[C@@H]3CCCCN3C(=O)[C@@H](CC)c3cc(OC)c(OC)c(OC)c3)c2)CN(C)C)c1)c1cc(OC)c(OC)c(OC)c1 [AP20187] | – | – | – | significantly reduced |
